The values that follow are results of earlier work, collected in patent US20050031575A1, “Block copolymers” (priority 2001, published 2005).

The test system of the data set is solid tumours. Particulars: micelles ranging in size from 20-60 nm that accumulate in solid tumours.

On to “poly(ethylene glycol-aspartate) block copolymer doxorubicin conjugates”, for which the antitumour activity entry is given as “exhibit antitumour activity”.
